Experimental data from patent publication USRE48461E1, “Modulation of androgen receptor expression” (Ionis Pharmaceuticals, Inc., priority 2012, dated 2021).
e = 2'-O-(2-methoxyethyl) (MOE); d = 2'-deoxy (DNA)

Tests used:
[1] = system: V7 splice variant of the AR mRNA; assay: AR V7 splice variant mRNA in CWR22-RV1 cells (RT-PCR SYBR Green); type: cell-based, human; conditions: RNAiMax, 6 days
Protocol: (§1) CWR22-RV1 cells were plated and transfected using RNAiMax reagent (Life Technologies) with ISIS oligonucleotides at 1.7 nM, 5.0 nM, 16.7 nM, or 50 nM concentrations. ISIS 347526 was included as a negative control. After a treatment period of 6 days, the target reduction and proliferative capacity of the cancer cells was measured.
(§2) Antisense inhibition of AR full-length mRNA was measured with the RTS3559 primer probe set. The results are presented in Table 63 as percent inhibition relative to non-treated cells. The reduction in V7 splice variant of the AR mRNA was also measured by RT-PCR using SYBR Green staining (Hu, R. et al., Cancer Res. 2009. 69: 16-22). The results are presented in Table 64, as percent reduction, relative to non-treated cells. Cell proliferation was measured with CellTiter 96® AQueous One Solution Cell Proliferation kit (Promega), following the manufacturer's instructions. Results are presented in Table 65 as percent inhibition of proliferation, relative to non-treated cells.

full-length AR = assay: Western blot of full-length AR in MDV3100-resistant C4-2B cells; type: cell-based, human; conditions: C4-2B MR cells (Example 16)
Protocol: (§3) ISIS 549372, ISIS 549434, and ISIS 554221 at 1 μM concentration of antisense oligonucleotide were each added to the culture media at 1 μM concentration for free uptake by the cells. After a treatment period of 2 days, cells were harvested in RIPA buffer containing protease inhibitors. The presence of bands for full-length AR, as well as the variant form, AR-V7, was detected by western blot using AR antibody (N-20, Santa Cruz).
(§4) Western analysis of full-length AR, as well as the AR-V7 variant, was also conducted in a manner similar to the assay described above.

C4-2B cells [2] = assay: C4-2B cell proliferation by free uptake (MTT); type: cell-based, human; conditions: day 6
Protocol: (§5) Cells were plated at a concentration of 1,000 cells/well in 96-well plates to measure cell proliferation, and at 4,000 cells/well to measure target reduction. ISIS 549458, ISIS 549372, ISIS 549434, and ISIS 554221 were added individually at 0.04 μM, 0.20 μM, 1.00 μM, or 5.00 μM. After an incubation period of 24 hrs, mRNA levels were measured using hAR_LTS00943.
On day 6, cells plated for measuring proliferation were incubated with MTT reagent until the development of color. Color intensity was measured using a spectrophotometer at 490 nm.

CWR22-RV1 cells = assay: CWR22-RV1 cell proliferation (CellTiter 96); type: cell-based, human; conditions: RNAiMax, 6 days
Protocol: as §1, §2

AR mRNA [3] = assay: AR mRNA levels in LMR20 cells (with/without DHT or R1881); type: cell-based, human; conditions: with or without DHT/R1881
Protocol: LMR20 cells were plated at 1,500 cells per well in phenol red-free medium with CSS.

C4-2B cells [4] = assay: C4-2B cell proliferation, ASO in combination with MDV3100 (Example 19); type: cell-based, human; conditions: 6 days
Protocol: C4-2B cells were plated at 1,500 cells per well. […] ISIS 347526 was included as a negative control. […] After a treatment period of 6 days, the proliferative capacity of the cancer cells was measured with CellTiter 96® AQueous One Solution Cell Proliferation kit (Promega), following the manufacturer's instructions. Results are presented in Table 46 as percent inhibition of proliferation, relative to non-treated cells. Treatment of the cells with ISIS 549372 or ISIS 549458 reduced proliferation of the cells more extensively than treatment with ISIS 554221.

AR full-length mRNA = AR full-length mRNA in CWR22-RV1 cells (RNAiMax, RTS3559); type: cell-based, human; conditions: 6 days
Protocol: as §1, §2

AR mRNA [5] = assay: AR mRNA in C4-2B cells by free uptake (hAR_LTS00943); type: cell-based, human; conditions: free uptake, 24 hrs
Protocol: as §5

AR-V7 = assay: Western blot of AR-V7 in MDV3100-resistant C4-2B cells; type: cell-based, human; conditions: C4-2B MR cells (Example 16)
Protocol: as §3, §4

LMR20 cells = assay: Proliferation of MDV3100-resistant LMR20 cells (MTT; with R1881 or DHT); type: cell-based, human; conditions: 5 days
Protocol: LMR20 cells were plated at 1,500 cells per well in phenol red-free medium with charcoal-stripped fetal bovine serum (CSS), to remove any androgens from the medium (Life Technologies). […] The synthetic androgen agonist, R1881, (Takeda, A. N. et al., Mol. Pharmacol. 2007. 71: 473-82) was added on day 1 at 1 nM dose to a set of cells also treated with each of the antisense oligonucleotides. DHT was added on day 1 at a dose of 10 nM to another set of cells also treated with each of the antisense oligonucleotides. […] After a treatment period of 5 days, the proliferative ability of the cancer cells was measured by the standard MTT assay. Results are presented in Table 42 as percent inhibition of proliferation, relative to non-treated cells.

[6] = cynomolgus monkey, in vivo, sc, 40 mg/kg
[7] = cynomolgus monkey, in vivo
[8] = cynomolgus monkey, in vivo, sc, 40 mg/kg; remark: listed apart in the source
Protocol: (§6) Prior to the study, the monkeys were kept in quarantine for a 30-day period, during which the animals were observed daily for general health. The monkeys were 2-4 years old and weighed between 2 and 4 kg. Thirteen groups of four randomly assigned male cynomolgus monkeys each were injected subcutaneously with ISIS oligonucleotide or PBS. PBS solution or ISIS oligonucleotides, at a dose of 40 mg/kg, were administered with a loading regimen consisting of four doses on the first week of the study (days 1, 3, 5, and 7), followed by a maintenance regimen consisting of once weekly administration starting on Day 14 (weeks 2 to 6). Subcutaneous injections were performed in clock-wise rotations at 4 sites on the back; one site per dose. The injection sites were delineated by tattoo, while sedated using ketamine, and were separated by a minimum of 3 cm.
To evaluate any effect of ISIS oligonucleotides in cynomolgus monkeys on hematologic parameters, blood samples of approximately 0.5 mL of blood was collected day 44 from each of the available study animals in tubes containing K2-EDTA. Samples were analyzed for red blood cell (RBC) count, white blood cells (WBC) count, platelet count, hemoglobin content and hematocrit, using an ADVIA2120i hematology analyzer (SIEMENS, USA).

[9] = cynomolgus monkey, in vivo, sc, 40 mg/kg; remark: listed apart in the source
Protocol: as §6
To evaluate the effect of ISIS oligonucleotides on hepatic function, the monkeys were fasted overnight. Approximately, 1.5 mL of blood samples were collected on day 44 from all the study groups. Blood was collected in tubes without anticoagulant for serum separation. The tubes were kept at room temperature for a minimum of 90 min and then centrifuged at 3,000 rpm for 10 min. Levels of various liver function markers were measured using a Toshiba 120FR NEO chemistry analyzer (Toshiba Co., Japan).

[10] = cynomolgus monkey, in vivo, sc, 40 mg/kg; remark: listed apart in the source
Protocol: as §6
Kidney function was also assessed by urinalysis. Fresh urine from all animals was collected on day 44 using a clean cage pan on wet ice. Food was removed overnight the day before fresh urine collection was done but water was supplied. The total protein and creatinine levels were measured using a Toshiba 120FR NEO automated chemistry analyzer (Toshiba Co., Japan) and the protein to creatinine ratio was calculated.

testosterone = assay: Serum testosterone levels in cynomolgus monkeys (ELISA); type: in vivo; conditions: cynomolgus monkey, 40 mg/kg subcutaneously, 40 mg/kg
Protocol: Serum testosterone protein levels were measured in the plasma with an ELISA kit (Enzo Life Sciences), following the manufacturer's instructions.

[11] = cynomolgus monkey, in vivo, sc, 40 mg/kg; remark: listed apart in the source
Protocol: as §6
To evaluate the effect of ISIS oligonucleotides on kidney function, the monkeys were fasted overnight. Approximately, 1.5 mL of blood samples were collected from all the study groups on day 44. Blood was collected in tubes without anticoagulant for serum separation. The tubes were kept at room temperature for a minimum of 90 min and then centrifuged at 3,000 rpm for 10 min. Levels of BUN and creatinine were measured using a Toshiba 120FR NEO chemistry analyzer (Toshiba Co., Japan).

[12] = cynomolgus monkey, in vivo, sc, 40 mg/kg; remark: listed apart in the source
Protocol: The monkeys were 2-4 years old and weighed between 2 and 4 kg. Thirteen groups of four randomly assigned male cynomolgus monkeys each were injected subcutaneously with ISIS oligonucleotide or PBS. PBS solution or ISIS oligonucleotides, at a dose of 40 mg/kg, were administered with a loading regimen consisting of four doses on the first week of the study (days 1, 3, 5, and 7), followed by a maintenance regimen consisting of once weekly administration starting on Day 14 (weeks 2 to 6). Subcutaneous injections were performed in clock-wise rotations at 4 sites on the back; one site per dose. The injection sites were delineated by tattoo, while sedated using ketamine, and were separated by a minimum of 3 cm.
To evaluate any inflammatory effect of ISIS oligonucleotides in cynomolgus monkeys, the monkeys were fasted overnight. Approximately, 1.5 mL of blood samples were collected from all the study groups on day 44. Blood was collected in tubes without anticoagulant for serum separation. The tubes were kept at room temperature for a minimum of 90 min and then centrifuged at 3,000 rpm for 10 min. C-reactive protein (CRP), which is synthesized in the liver and which serves as a marker of inflammation, was measured on day 43 using a Toshiba 120FR NEO chemistry analyzer (Toshiba Co., Japan). Complement C3 was also measured similarly, and the data is presented as a percentage of baseline values.

Sequence: ACCAAGTTTCTTCAGC (LNA gapmer, phosphorothioate backbone, further chemistry not given here) [ISIS 554221, 3-10-3 LNA gapmer, phosphorothioate backbone, targeted to exon 4 of AR; benchmark, reference compound]
- Percent inhibition of AR splice variant, V7 ([1]; dose 5.0 nM): 1%
- Percent inhibition of AR splice variant, V7 ([1]; dose 16.7 nM): 7%
- Percent inhibition of AR splice variant, V7 ([1]; dose 50.0 nM): 35%
- levels of full-length AR (Western analysis) (full-length AR): reduced levels of full-length AR less extensively compared to ISIS 549372
- Percent inhibition of cell proliferation (C4-2B cells [2]; dose 0.04 μM): 0%
- Percent inhibition of cell proliferation (C4-2B cells [2]; dose 0.20 μM): 10%
- Percent inhibition of cell proliferation (C4-2B cells [2]; dose 1.00 μM): 21%
- Percent inhibition of cell proliferation (C4-2B cells [2]; dose 5.00 μM): 30%
- Percent inhibition of cell proliferation (CWR22-RV1 cells; dose 5.0 nM): 11%
- Percent inhibition of cell proliferation (CWR22-RV1 cells; dose 16.7 nM): 27%
- Percent inhibition of cell proliferation (CWR22-RV1 cells; dose 50.0 nM): 47%
- AR mRNA levels in LMR20 cells (AR mRNA [3]): did not alter AR mRNA levels
- Percent inhibition of C4-2B cell proliferation with 0.1 μM ASO (C4-2B cells [4]; 0.1 μM ASO + MDV3100 1 μM): 59%
- Percent inhibition of C4-2B cell proliferation with 0.1 μM ASO (C4-2B cells [4]; 0.1 μM ASO + MDV3100 […]): 29%
- Percent inhibition of C4-2B cell proliferation with 0.1 μM ASO (C4-2B cells [4]; 0.1 μM ASO, MDV3100 0 μM): 9%
- Percent inhibition of C4-2B cell proliferation with 0.2 μM ASO (C4-2B cells [4]; 0.2 μM ASO + MDV3100 1 μM): 67%
- Percent inhibition of C4-2B cell proliferation with 0.2 μM ASO (C4-2B cells [4]; 0.2 μM ASO + MDV3100 […]): 45%
- Percent inhibition of C4-2B cell proliferation with 0.2 μM ASO (C4-2B cells [4]; 0.2 μM ASO, MDV3100 0 μM): 23%
- reduced cell proliferation, ASO alone (C4-2B cells [4]; C4-2B cells, ASO alone, Table 46 (0.1 μM ASO)): 23%
- Percent inhibition of AR full-length mRNA (AR full-length mRNA; dose 5.0 nM): 41%
- Percent inhibition of AR full-length mRNA (AR full-length mRNA; dose 16.7 nM): 67%
- Percent inhibition of AR full-length mRNA (AR full-length mRNA; dose 50.0 nM): 72%
- Percent inhibition of AR full-length mRNA (AR mRNA [5]; dose 0.04 μM): 0%
- Percent inhibition of AR full-length mRNA (AR mRNA [5]; dose 0.20 μM): 0%
- Percent inhibition of AR full-length mRNA (AR mRNA [5]; dose 1.00 μM): 0%
- Percent inhibition of AR full-length mRNA (AR mRNA [5]; dose 5.00 μM): 0%
- levels of AR-V7 (Western analysis) (AR-V7): did not reduce levels of AR-V7
- Percent inhibition of LMR20 cell proliferation (LMR20 cells; CSS + DHT, ASO 0.04 μM): 0%
- Percent inhibition of LMR20 cell proliferation (LMR20 cells; CSS + DHT, ASO 0.20 μM): 0%
- Percent inhibition of LMR20 cell proliferation (LMR20 cells; CSS + DHT, ASO 1.0 μM): 10%
- Percent inhibition of LMR20 cell proliferation (LMR20 cells; CSS + DHT, ASO 5.0 μM): 36%
- Percent inhibition of LMR20 cell proliferation (LMR20 cells; CSS + R1881, ASO 0.04 μM): 1%
- Percent inhibition of LMR20 cell proliferation (LMR20 cells; CSS + R1881, ASO 0.20 μM): 10%
- Percent inhibition of LMR20 cell proliferation (LMR20 cells; CSS + R1881, ASO 1.0 μM): 19%
- Percent inhibition of LMR20 cell proliferation (LMR20 cells; CSS + R1881, ASO 5.0 μM): 54%
- Percent inhibition of LMR20 cell proliferation (LMR20 cells; CSS, ASO 0.04 μM): 0%
- Percent inhibition of LMR20 cell proliferation (LMR20 cells; CSS, ASO 0.20 μM): 1%
- Percent inhibition of LMR20 cell proliferation (LMR20 cells; CSS, ASO 1.0 μM): 2%
- Percent inhibition of LMR20 cell proliferation (LMR20 cells; CSS, ASO 5.0 μM): 16%

Sequence: TCTTATGTTTCCGAACCGTT (sugars from the 5' end e5 d10 e5, backbone and methylation of C not given here) [ISIS 347526, reference compound]
- Percent inhibition of AR splice variant, V7 ([1]; dose 5.0 nM): 0%
- Percent inhibition of AR splice variant, V7 ([1]; dose 16.7 nM): 0%
- Percent inhibition of AR splice variant, V7 ([1]; dose 50.0 nM): 10%
- levels of full-length AR (Western analysis) (full-length AR): did not reduce protein levels
- Percent inhibition of cell proliferation (CWR22-RV1 cells; dose 5.0 nM): 0%
- Percent inhibition of cell proliferation (CWR22-RV1 cells; dose 16.7 nM): 0%
- Percent inhibition of cell proliferation (CWR22-RV1 cells; dose 50.0 nM): 0%
- Percent inhibition of AR full-length mRNA (AR full-length mRNA; dose 5.0 nM): 3%
- Percent inhibition of AR full-length mRNA (AR full-length mRNA; dose 16.7 nM): 4%
- Percent inhibition of AR full-length mRNA (AR full-length mRNA; dose 50.0 nM): 0%
- levels of AR-V7 (Western analysis) (AR-V7): did not reduce protein levels

Sequence: TTGATTTAATGGTTGC [ISIS 579671] (cEt/MOE gapmer chemistry, further chemistry not given here)
- Body Wt [6]: 2.4 kg
- Heart weight [6]: 8.8 g
- Kidney weight [6]: 14 g
- Liver weight [6]: 62 g
- Mesenteric lymph nodes weight [6]: 2.5 g
- Spleen weight [6]: 3.2 g
- K/L ratio [7]: 3.0
- Oligonucleotide concentration, Kidney ([7]; sc, 40 mg/kg): 2576 μg/g tissue
- Oligonucleotide concentration, Liver ([7]; sc, 40 mg/kg): 871 μg/g tissue
- HCT [8]: 42%
- Hemoglobin [8]: 12.5 g/dL
- Platelets [8]: 438000 µL
- RBC [8]: 5.4e+06 µL
- WBC [8]: 10000 µL
- ALT [9]: 56 IU/L
- AST [9]: 53 IU/L
- Albumin [9]: 4.0 g/dL
- Urine protein/creatinine ratio [10]: 0.00
- Serum testosterone level (testosterone): 7.3 ng/mL
- Plasma BUN [11]: 22.7 mg/dL
- Plasma Creatinine [11]: 0.74 mg/dL
- C3 (% of baseline) [12]: 101 % of baseline
- CRP [12]: 4.5 mg/dL
